Earlier results in US7291720B2, “Use of sublethal concentrations of anti-invasin compounds to therapeutically or prophylactically treat fungal infections” (priority 2000, dated 2007).

How the values were obtained:
[1] = test system: susceptible isolate of C. albicans; details: in vitro
[2] = about half necessitated discontinuation of therapy

For `OC(Cn1cncn1)(Cn1cncn1)c1ccc(F)cc1F` [fluconazole], the “concentration that reduces hyphal formation” value [1] is given as 0.1 µg/mL and the “patients with adverse reactions, possibly related to the treatment” value [2] is given as “over 5%”.
